Data taken from US20090246290A1, “Lipid metabolism improving agent containing hydrogen molecules” (priority 2006, published 2009).

How the values were obtained:
[1] = hydrogen pressure of 1 atmosphere, room temperature; cited from earlier work
[2] = system: apoE knockout mice (apoE-KO mice); settings: approximately 2% hydrogen gas inhalation, vs control group
Procedure: (§1) The size of this container was as follows: W: 550 mm; L: 400 mm; and H: 300 mm.
(§2) Then, effects on body fat and the liver were examined. 9-week-old male apoE-KO mice were placed in cages (4 mice each). One group was designated as a control group and normal air was supplied thereto.
Next, each mouse was analyzed with an X-ray CT for laboratory animals (LaTheta LCT-100A, Aloka Co., Ltd.). General anesthesia induction was carried out by supplying an anesthetic gas mixture (oxygen: 0.3 L/min; nitrous-oxide gas: 0.7 L/min; Sevofrane: 3% (Maruishi Pharmaceutical Co., Ltd.)) to each mouse with the use of a general anesthesia apparatus for small animals (Soft Lander, NeuroScience, Inc). CT scanning was carried out under anesthesia so as to obtain whole-body images (FIG. 9, upper images). Then, fat regions were determined based on CT values so as to specify subcutaneous fat and visceral fat (FIG. 9, lower images). Each cross-sectional area was multiplied by the thickness so as to obtain the volume, followed by estimation of the fat and muscle weights. […] In addition, fat percentages were obtained by the following equation.
Fat percentage (%)=fat [visceral fat+subcutaneous fat]/(fat [visceral fat+subcutaneous fat]+muscle)×100

[3] = system: apoE knockout mice (apoE-KO mice); assay: Serum items, organ weights and fat accumulated in the liver 12 weeks after hydrogen gas inhalation; assay type: in vivo, mouse; settings: 12 weeks hydrogen gas inhalation, vs control group
Procedure: The amounts of the following items in serum were measured: total cholesterol, LDL cholesterol, HDL cholesterol, neutral fat, AST, ALT, creatinine kinase, total protein, lactate dehydrogenase, urea nitrogen, total bilirubin, creatinine, alkaline phosphatase, choline esterase, and albumine. […] Each liver was fixed with 4% paraformaldehyde overnight, followed by dehydration with sucrose. Thereafter, frozen sections were prepared and stained with Oil-Red O. Then, the amount of lipids accumulated in the liver was calculated (FIG. 13A, images). The stained portions indicate fat accumulation.

[4] = system: apoE knockout mice (apoE-KO mice); settings: 11 weeks after hydrogen administration, approximately 2% hydrogen gas inhalation
Text: as §1, §2
11 weeks after hydrogen administration, the mice were subjected to measurement of muscle force. Upon measurement, each mouse was allowed to hold a mesh wire of the ceiling and the time period until it fell from the ceiling was determined.

[5] = system: apoE knockout mice (apoE-KO mice); settings: inhalation of gas mixture with approximately 2% hydrogen gas
Text: as §1, §2

For `[HH]` [hydrogen gas], the “hydrogen dissolved in 1 L of water” value [1] is given as “approximately 17.5 mL”, the “amount of subcutaneous fat (CT)” value [2] is given as “significantly decreased” and the “amount of total fat (CT)” value [2] is given as “significantly decreased”. The “amount of visceral fat (CT)” value [2] was “significantly decreased”, the “fat percentage (fat/(fat+muscle) x100, CT)” value [2] was “more significantly decreased” and the kidney weight [3] was “significantly decreased”. The liver weight [3] was “significantly decreased”, the “serum ALT” value [3] was “no difference was observed” and the “serum AST” value [3] was “no difference was observed”. For the same molecule, the “serum HDL cholesterol” value [3] was “no difference was observed”, the “serum LDL cholesterol” value [3] was “no difference was observed” and the serum albumine [3] was “no difference was observed”. For the same molecule, the serum alkaline phosphatase [3] was “no difference was observed”, the serum choline esterase [3] was “no difference was observed” and the serum creatinine [3] was “no difference was observed”. For the same molecule, the serum creatinine kinase [3] was “no difference was observed”, the serum lactate dehydrogenase [3] was “no difference was observed” and the serum neutral fat [3] was “no difference was observed”. For the same molecule, the serum total bilirubin [3] was “no difference was observed”, the serum total cholesterol [3] was “no difference was observed” and the serum total protein [3] was “no difference was observed”. For the same molecule, the serum urea nitrogen [3] was “no difference was observed”, the “muscle force: time period until mouse fell from mesh wire of the ceiling” value [4] was “significantly long time” and the “weight increases vs control group” value [5] was “significantly suppressed”.
